Data from PubChem BioAssay AID330 (DTP/NCI, 2004).
Where “and” joins values, the source holds several entries; their conditions need not be identical. Equal entries are not always repeated. Toxic doses and inconclusive results are not listed.

System: P388 leukemia ip, CD2F1 mice, survival T/C
Test: NCI In Vivo Anticancer Drug Screen. Data for tumor model P388 Leukemia (intraperitoneal) in CD2F1 (CDF1) mice
Details: endpoint: median survival time, higher = longer survival
Method in brief: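 Mice carrying the transplanted tumor received test compound or vehicle. Survival was recorded in each group, and the value is the treated-group measurement divided by that of the vehicle-treated control group.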

[1] = dose: 12.5 mg/kg/injection, schedule: Q01DX009 (ip), vehicle: Klucel (hydroxypropylcellulose) (HPC)
[2] = dose: 25.0 mg/kg/injection, schedule: Q01DX009 (ip), vehicle: Klucel (hydroxypropylcellulose) (HPC)
[3] = dose: 50.0 mg/kg/injection, schedule: Q01DX009 (ip), vehicle: Klucel (hydroxypropylcellulose) (HPC)
[4] = dose: 100.0 mg/kg/injection, schedule: Q01DX009 (ip), vehicle: Klucel (hydroxypropylcellulose) (HPC)
[5] = dose: 60.0 mg/kg/injection, schedule: Q01DX005 (ip), vehicle: saline with Tween-80
[6] = dose: 120.0 mg/kg/injection, schedule: Q01DX005 (ip), vehicle: saline with Tween-80
[7] = dose: 50.0 mg/kg/injection, schedule: Q01DX005 (ip), vehicle: Klucel (hydroxypropylcellulose) (HPC)
[8] = dose: 100.0 mg/kg/injection, schedule: Q01DX005 (ip), vehicle: Klucel (hydroxypropylcellulose) (HPC)
[9] = dose: 200.0 mg/kg/injection, schedule: Q01DX005 (ip), vehicle: Klucel (hydroxypropylcellulose) (HPC)

## COc1cccc2c1C(=O)c1c(O)c3c(c(O)c1C2=O)CC(O)(/C(C)=N/NC(=O)CCC(=O)N/N=C(\C)C1(O)Cc2c(O)c4c(c(O)c2C(OC2CC(N(C)C)C(O)C(C)O2)C1)C(=O)c1c(OC)cccc1C4=O)CC3OC1CC(N(C)C)C(O)C(C)O1 (configuration not stated)
dose: 1.0 mg/kg/injection, schedule: Q01DX009 (ip), vehicle: water
  T/C: 157 % of control
dose: 2.0 mg/kg/injection, schedule: Q01DX009 (ip), vehicle: water
  T/C: 183 % of control
dose: 3.13 mg/kg/injection, schedule: Q04DX003 (ip), vehicle: water
  T/C: 103 % of control
dose: 4.0 mg/kg/injection, schedule: Q01DX009 (ip), vehicle: water
  T/C: 178 % of control and 203 % of control
dose: 6.25 mg/kg/injection, schedule: Q04DX003 (ip), vehicle: water
  T/C: 110 % of control
dose: 8.0 mg/kg/injection, schedule: Q01DX009 (ip), vehicle: water
  T/C: 160 % of control and 240 % of control
dose: 12.5 mg/kg/injection, schedule: Q04DX003 (ip), vehicle: water
  T/C: 117 % of control
dose: 16.0 mg/kg/injection, schedule: Q01DX009 (ip), vehicle: water
  T/C: 152 % of control
dose: 25.0 mg/kg/injection, schedule: Q04DX003 (ip), vehicle: water
  T/C: 174 % of control
dose: 50.0 mg/kg/injection, schedule: Q04DX003 (ip), vehicle: water
  T/C: 119 % of control

## CC1CCCC(C2CC3CCCCC3C(N)[N-]2)[N-]1.O=[N+]([O-])O.O=[N+]([O-])O.[Cu+2] (configuration not stated)
dose: 6.25 mg/kg/injection, schedule: Q04DX002 (ip), vehicle: suspension in saline
  T/C: 93 % of control
dose: 12.5 mg/kg/injection, schedule: Q04DX002 (ip), vehicle: suspension in saline
  T/C: 110 % of control

## COc1cc(OC)c(/C=N/Nc2cc(C)nc3cc4c(cc23)OCO4)c(OC)c1
dose: 1.56 mg/kg/injection, schedule: Q01DX005 (ip), vehicle: Klucel (hydroxypropylcellulose) (HPC)
  T/C: 106 % of control
dose: 3.12 mg/kg/injection, schedule: Q01DX005 (ip), vehicle: Klucel (hydroxypropylcellulose) (HPC)
  T/C: 97 % of control
dose: 6.25 mg/kg/injection, schedule: Q01DX005 (ip), vehicle: Klucel (hydroxypropylcellulose) (HPC)
  T/C: 102 % of control and 91 % of control
dose: 12.5 mg/kg/injection, schedule: Q01DX005 (ip), vehicle: Klucel (hydroxypropylcellulose) (HPC)
  T/C: 100 % of control and 87 % of control
dose: 25.0 mg/kg/injection, schedule: Q01DX005 (ip), vehicle: Klucel (hydroxypropylcellulose) (HPC)
  T/C: 103 % of control

## CN(C)C(=S)SSC(=S)N(C)C
[1]
  T/C: 119 % of control
[2]
  T/C: 115 % of control
[3]
  T/C: 101 % of control and 117 % of control
[4]
  T/C: 118 % of control and 90 % of control

## COc1ccc(Cc2ccc(OC)c(OC)c2)cc1OC
dose: 25.0 mg/kg/injection, schedule: Q04DX003 (ip), vehicle: saline with Tween-80
  T/C: 99 % of control
dose: 50.0 mg/kg/injection, schedule: Q04DX003 (ip), vehicle: saline with Tween-80
  T/C: 99 % of control
dose: 100.0 mg/kg/injection, schedule: Q04DX003 (ip), vehicle: saline with Tween-80
  T/C: 113 % of control
dose: 200.0 mg/kg/injection, schedule: Q04DX003 (ip), vehicle: saline with Tween-80
  T/C: 109 % of control
dose: 400.0 mg/kg/injection, schedule: Q04DX003 (ip), vehicle: saline with Tween-80
  T/C: 120 % of control

## C=CCc1ccc(OC(=O)Nc2ccc(C)cc2[N+](=O)[O-])c(OC)c1
dose: 50.0 mg/kg/injection, schedule: Q01DX009 (ip), vehicle: saline with Tween-80
  T/C: 88 % of control
dose: 100.0 mg/kg/injection, schedule: Q01DX009 (ip), vehicle: saline with Tween-80
  T/C: 88 % of control
dose: 200.0 mg/kg/injection, schedule: Q01DX009 (ip), vehicle: saline with Tween-80
  T/C: 95 % of control

## [N-]=[N+]=Nc1ccc(SN2C(=O)c3ccccc3C2=O)cc1
[5]
  T/C: 112 % of control
[6]
  T/C: 113 % of control
dose: 240.0 mg/kg/injection, schedule: Q01DX005 (ip), vehicle: saline with Tween-80
  T/C: 113 % of control

## COC1=CC(=O)C2CC=CC3CC(=O)OC1C32CO (configuration not stated)
[7]
  T/C: 113 % of control
[8]
  T/C: 103 % of control
[9]
  T/C: 101 % of control

## Cc1cc(=O)oc2c1ccc1c(O)cccc12
[5]
  T/C: 106 % of control
[6]
  T/C: 100 % of control

## NC(=O)CCC(N)C(=O)O.[Cl-].[Cl-].[Cl-].[Cl-].[Pt+2] (configuration not stated)
dose: 6.25 mg/kg/injection, schedule: Q01DX009 (ip), vehicle: saline
  T/C: 107 % of control
dose: 6.25 mg/kg/injection, schedule: Q01DX009 (ip), vehicle: water
  T/C: 153 % of control
dose: 11.0 mg/kg/injection, schedule: Q01DX009 (ip), vehicle: saline
  T/C: 106 % of control
dose: 12.5 mg/kg/injection, schedule: Q01DX009 (ip), vehicle: saline
  T/C: 110 % of control
dose: 12.5 mg/kg/injection, schedule: Q01DX009 (ip), vehicle: water
  T/C: 154 % of control and 155 % of control
dose: 25.0 mg/kg/injection, schedule: Q01DX009 (ip), vehicle: water
  T/C: 155 % of control
dose: 37.5 mg/kg/injection, schedule: Q01DX009 (ip), vehicle: saline
  T/C: 157 % of control
dose: 50.0 mg/kg/injection, schedule: Q01DX009 (ip), vehicle: saline
  T/C: 152 % of control

## CCOc1c(N=Nc2ccc(O)cc2)c(C)nn1C(=S)S
dose: 60.0 mg/kg/injection, schedule: Q01DX005 (ip), vehicle: Klucel + Tween-80
  T/C: 115 % of control
dose: 120.0 mg/kg/injection, schedule: Q01DX005 (ip), vehicle: Klucel + Tween-80
  T/C: 115 % of control
dose: 240.0 mg/kg/injection, schedule: Q01DX005 (ip), vehicle: Klucel + Tween-80
  T/C: 118 % of control

## Clc1cc(Cl)c(Cl)nn1
[2]
  T/C: 98 % of control
[3]
  T/C: 94 % of control
[4]
  T/C: 92 % of control

## CCOC(=O)C1(NC(=O)Nc2ccccc2)CCCCC1
[7]
  T/C: 100 % of control
[8]
  T/C: 98 % of control
[9]
  T/C: 104 % of control

## COc1cc(C2=N/C(=C/c3cccc(O)c3O)C(=O)O2)cc(OC)c1OC
dose: 6.25 mg/kg/injection, schedule: Q01DX009 (ip), vehicle: Klucel (hydroxypropylcellulose) (HPC)
  T/C: 101 % of control
[1]
  T/C: 96 % of control

## O=CNC(Cc1cnc[nH]1)C(=O)O (configuration not stated)
dose: 50.0 mg/kg/injection, schedule: Q01DX005 (ip), vehicle: saline with Tween-80
  T/C: 100 % of control
dose: 100.0 mg/kg/injection, schedule: Q01DX005 (ip), vehicle: saline with Tween-80
  T/C: 98 % of control
dose: 200.0 mg/kg/injection, schedule: Q01DX005 (ip), vehicle: saline with Tween-80
  T/C: 97 % of control

## Cc1ccc(S(=O)(=O)NC(CNC(N)=O)C(=O)O)cc1 (configuration not stated)
dose: 12.5 mg/kg/injection, schedule: Q01DX009 (ip), vehicle: other
  T/C: 107 % of control
dose: 25.0 mg/kg/injection, schedule: Q01DX009 (ip), vehicle: other
  T/C: 101 % of control
dose: 50.0 mg/kg/injection, schedule: Q01DX009 (ip), vehicle: other
  T/C: 100 % of control
dose: 100.0 mg/kg/injection, schedule: Q01DX009 (ip), vehicle: other
  T/C: 97 % of control
dose: 200.0 mg/kg/injection, schedule: Q01DX009 (ip), vehicle: other
  T/C: 96 % of control

## O/N=C/C(Cl)=N\O
dose: 100.0 mg/kg/injection, schedule: Q04DX002 (ip), vehicle: saline with Tween-80
  T/C: 91 % of control
dose: 200.0 mg/kg/injection, schedule: Q04DX002 (ip), vehicle: saline with Tween-80
  T/C: 90 % of control

## N#Cc1ccc(NN=NCCF)cc1
dose: 6.25 mg/kg/injection, schedule: Q01DX005 (ip), vehicle: distilled water + Tween-80
  T/C: 100 % of control
dose: 6.25 mg/kg/injection, schedule: Q01DX005 (ip), vehicle: saline with Tween-80
  T/C: 117 % of control
dose: 12.5 mg/kg/injection, schedule: Q01DX005 (ip), vehicle: saline with Tween-80
  T/C: 121 % of control

## N=C(N)SCCC(=O)NCNC(=O)CCSC(=N)N
dose: 50.0 mg/kg/injection, schedule: Q01DX005 (ip), vehicle: suspension in saline
  T/C: 98 % of control
dose: 100.0 mg/kg/injection, schedule: Q01DX005 (ip), vehicle: suspension in saline
  T/C: 99 % of control

## COc1cc(C(O)Cc2ccccc2)cc(OC)c1OC (configuration not stated)
dose: 31.25 mg/kg/injection, schedule: Q01DX009 (ip), vehicle: saline + Tween-80 + alcohol
  T/C: 98 % of control
dose: 62.5 mg/kg/injection, schedule: Q01DX009 (ip), vehicle: saline + Tween-80 + alcohol
  T/C: 109 % of control
dose: 125.0 mg/kg/injection, schedule: Q01DX009 (ip), vehicle: saline + Tween-80 + alcohol
  T/C: 91 % of control
dose: 250.0 mg/kg/injection, schedule: Q01DX009 (ip), vehicle: saline + Tween-80 + alcohol
  T/C: 89 % of control

## COc1c2ccccc2c(C)c2ccc3ccccc3c12
dose: 100.0 mg/kg/injection, schedule: Q01DX001 (ip), vehicle: Klucel (hydroxypropylcellulose) (HPC)
  T/C: 107 % of control
dose: 200.0 mg/kg/injection, schedule: Q01DX001 (ip), vehicle: Klucel (hydroxypropylcellulose) (HPC)
  T/C: 111 % of control
